Data from patent US7138361B2, “Herbicidal heterocycles” (E. I. du Pont de Nemours and Company, priority 2000, dated 2006).

Key:
Format in all cases: in vivo
rice (Oryza saliva) = assay: Test B flooded paddy test; conditions: Rate 1000 g/ha, scale of 0 to 100 where 0 is no effect and 100 is complete control, visually evaluated after 13 to 15 days
Outline: (§1)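 Plants were grown to the 2-leaf stage in flooded paddy conditions before treatment with the formulated test chemicals. After 13 to 15 days in a greenhouse, each species was visually compared with untreated controls and rated from 0 (no effect) to 100 (complete control).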

[1] = test system: duck salad (Heteranthera limosa); assay: Test B flooded paddy test; conditions: Rate 1000 g/ha, scale of 0 to 100 where 0 is no effect and 100 is complete control, visually evaluated after 13 to 15 days
Outline: as §1

[2] = test system: barnyardgrass (Echinochloa crus-galli); assay: Test B flooded paddy test; conditions: Rate 1000 g/ha, scale of 0 to 100 where 0 is no effect and 100 is complete control, visually evaluated after 13 to 15 days
Outline: as §1

[3] = test system: smallflower flatsedge (Cyperus difformis); assay: Test B flooded paddy test; conditions: Rate 1000 g/ha, scale of 0 to 100 where 0 is no effect and 100 is complete control, visually evaluated after 13 to 15 days
Outline: as §1

[4] = test system: common ragweed (Ambrosia elatior); assay: Test C preemergence; conditions: for Plant response rating (0 to 100), Ragweed, Common: Rate 250 g/ha, visual evaluation after 12 to 14 days
Outline: (§2)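 Plants held in greenhouse for 12–14 days post-application are scored by eye against controls on a 0–100 control scale. Application timing: preemergence on sown seed, or postemergence on 2–18 cm plants.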

[5] = test system: chickweed (Stellaria media); assay: Test C postemergence
Outline: as §2

[6] = test system: pigweed (Amaranthus retroflexus); assay: Test C postemergence
Outline: as §2

[7] = test system: crabgrass (Digitaria sanguinalis); assay: Test C postemergence
Outline: as §2

[8] = test system: lambsquarters (Chenopodium album); assay: Test C postemergence
Outline: as §2

corn (Zea mays) = assay: Test C postemergence
Outline: as §2

[9] = test system: bermudagrass (Cynodon dactylon); assay: Test C postemergence
Outline: as §2

[10] = test system: velvetleaf (Abutilon theophrasti); assay: Test C postemergence
Outline: as §2

soybean (Glycine max) = assay: Test C postemergence
Outline: as §2

[11] = test system: giant foxtail (Setaria faberii); assay: Test C postemergence
Outline: as §2

[12] = test system: johnsongrass (Sorghum halepense); assay: Test C postemergence
Outline: as §2

kochia (Kochia scoparia) = assay: Test C postemergence
Outline: as §2

[13] = test system: Surinam grass (Brachiaria decumbens); assay: Test C postemergence
Outline: as §2

[14] = test system: cocklebur (Xanthium strumarium); assay: Test C postemergence
Outline: as §2

[15] = test system: goosegrass (Eleusine indica); assay: Test C postemergence
Outline: as §2

[16] = test system: yellow nutsedge (Cyperus esculentus); assay: Test C postemergence
Outline: as §2

[17] = Preemergence, Rate 500 g/ha, scale 0 to 100
[18] = preemergence, Rate 125 g/ha, scale 0 to 100, 0 no effect, 100 complete control
[19] = Rate 62 g/ha, scale 0 to 100, 0 no effect, 100 complete control
[20] = Rate 125 g/ha, scale 0 to 100, 0 no effect, 100 complete control
[21] = Rate 250 g/ha, scale 0 to 100 (0 no effect, 100 complete control)
[22] = Rate 500 g/ha, scale 0 to 100 (0 no effect, 100 complete control)

O=C1C(n2ccc(C3CCCCC3)n2)SCN1c1cccc(C(F)(F)F)c1 (centres unmarked) [Compound 52]
0: Plant response rating, Ragweed, Common [4, 18]
100: Plant response rating, Ducksalad [1] | Plant response rating, Barnyardgrass [2] | Plant response rating, Flatsedge [3]
50: Plant response rating, Rice (rice (Oryza saliva)) | Plant response rating, Ragweed, Common [4, 17]
40: Plant response rating (0 to 100), Ragweed, Common ([4]; preemergence)

CC(C)c1ccn(C2SCN(c3cccc(OC(F)(F)F)c3)C2=O)n1 (centres unmarked) [Compound 31]
30: Plant response rating, Ragweed, Common [4, 19]
90: Plant response rating, Rice (rice (Oryza saliva)) | Plant response rating (0 to 100), Ragweed, Common ([4]; preemergence) | Plant response rating, Ragweed, Common [4, 18]
100: Plant response rating, Ducksalad [1] | Plant response rating, Barnyardgrass [2] | Plant response rating, Flatsedge [3] | Plant response rating, Ragweed, Common [4, 17]

CCC(C)c1ccn(C2SCN(c3cccc(OC(F)(F)F)c3)C2=O)n1 (centres unmarked) [Compound 32]
0: Plant response rating, Ragweed, Common [4, 19] | Plant response rating, Ragweed, Common [4, 18]
90: Plant response rating (0 to 100), Ragweed, Common ([4]; preemergence)
100: Plant response rating, Rice (rice (Oryza saliva)) | Plant response rating, Ducksalad [1] | Plant response rating, Barnyardgrass [2] | Plant response rating, Flatsedge [3] | Plant response rating, Ragweed, Common [4, 17]

COc1cc(N2CCC(n3ccc(C(C)(C)C)n3)C2=O)ccc1C (centres unmarked) [Compound 42]
100: Plant response rating, Rice (rice (Oryza saliva)) | Plant response rating, Ducksalad [1] | Plant response rating, Barnyardgrass [2] | Plant response rating, Flatsedge [3]

CC(C)(C)c1nn(C2CCN(c3cccc(C(F)(F)F)c3)C2=O)cc1Cl (centres unmarked) [Compound 14]
0: Plant response rating, Rice (rice (Oryza saliva)) | Plant response rating, Ducksalad [1] | Plant response rating, Barnyardgrass [2] | Plant response rating, Flatsedge [3]

CC1(C)CCc2cn(C3CCN(c4cccc(C(F)(F)F)c4)C3=O)nc21 (centres unmarked) [Compound 10]
100: Plant response rating, Ducksalad [1] | Plant response rating, Barnyardgrass [2] | Plant response rating, Flatsedge [3]
60: Plant response rating, Rice (rice (Oryza saliva))

CC(C)(C)c1ccn(C2CCN(c3cccc(C(F)(F)F)c3)C2=O)n1 (centres unmarked) [Example 3, 3-[3-(1,1-dimethylethyl)-1H-pyrazol-1-yl]-1-[3-(trifluoromethyl)phenyl]-2-pyrrolidinone]
90: Plant response rating, Rice (rice (Oryza saliva))
100: Plant response rating, Ducksalad [1] | Plant response rating, Barnyardgrass [2] | Plant response rating, Flatsedge [3]

CC(C)(C)c1ccn(C2SCN(c3cccc(OC(F)(F)F)c3)C2=O)n1 (centres unmarked) [Compound 30]
70: Plant response rating, Chickweed [5, 21] | Plant response rating, Bermudagrass [9, 19] | Plant response rating, Kochia (kochia (Kochia scoparia); [20]) | Plant response rating, Kochia (kochia (Kochia scoparia); [21])
100: Plant response rating, Pigweed [6, 22] | Plant response rating, Ducksalad [1] | Plant response rating, Barnyardgrass [2] | Plant response rating, Flatsedge [3] | Plant response rating, Ragweed, Common [4, 17]
40: Plant response rating, Corn (corn (Zea mays); [22]) | Plant response rating, Goosegrass [15, 22]
50: Plant response rating, Chickweed [5, 19] | Plant response rating, Velvetleaf [10, 21] | Plant response rating, Cocklebur [14, 22]
20: Plant response rating, Corn (corn (Zea mays); [20])
0: Plant response rating, Soybean (soybean (Glycine max); [20]) | Plant response rating, Soybean (soybean (Glycine max); [21]) | Plant response rating, Soybean (soybean (Glycine max); [22]) | Plant response rating, Foxtail, Giant [11, 20] | Plant response rating, Johnsongrass [12, 20] | Plant response rating, Johnsongrass [12, 21] | Plant response rating, Surinam grass [13, 19] | Plant response rating, Surinam grass [13, 20] | Plant response rating, Surinam grass [13, 21] | Plant response rating, Goosegrass [15, 20] | Plant response rating, Nutsedge [16, 20] | Plant response rating, Nutsedge [16, 21] | Plant response rating, Nutsedge [16, 22] | Plant response rating, Ragweed, Common [4, 19]
80: Plant response rating, Pigweed [6, 20] | Plant response rating, Bermudagrass [9, 20] | Plant response rating, Bermudagrass [9, 21] | Plant response rating, Foxtail, Giant [11, 22]
60: Plant response rating, Chickweed [5, 20] | Plant response rating, Velvetleaf [10, 22] | Plant response rating, Surinam grass [13, 22]
90: Plant response rating, Chickweed [5, 22] | Plant response rating, Pigweed [6, 21] | Plant response rating, Crabgrass [7, 22] | Plant response rating, Lambsquarters [8, 20] | Plant response rating, Lambsquarters [8, 21] | Plant response rating, Lambsquarters [8, 22] | Plant response rating, Bermudagrass [9, 22] | Plant response rating, Johnsongrass [12, 22] | Plant response rating, Kochia (kochia (Kochia scoparia); [22]) | Plant response rating, Rice (rice (Oryza saliva)) | Plant response rating (0 to 100), Ragweed, Common ([4]; preemergence) | Plant response rating, Ragweed, Common [4, 18]
30: Plant response rating, Crabgrass [7, 20] | Plant response rating, Crabgrass [7, 21] | Plant response rating, Corn (corn (Zea mays); [21]) | Plant response rating, Velvetleaf [10, 20] | Plant response rating, Foxtail, Giant [11, 21] | Plant response rating, Cocklebur [14, 20] | Plant response rating, Cocklebur [14, 21] | Plant response rating, Goosegrass [15, 21]

CCC(C)c1nn(C2CCN(c3cccc(C(F)(F)F)c3)C2=O)cc1Cl (centres unmarked) [Compound 13]
0: Plant response rating, Rice (rice (Oryza saliva)) | Plant response rating, Ducksalad [1] | Plant response rating, Barnyardgrass [2] | Plant response rating, Flatsedge [3]

O=C1C(n2ccc(C3CCCCC3)n2)SCN1c1cccc(OC(F)(F)F)c1 (centres unmarked) [Compound 50]
20: Plant response rating, Ragweed, Common [4, 19]
100: Plant response rating, Ducksalad [1] | Plant response rating, Barnyardgrass [2] | Plant response rating, Flatsedge [3]
40: Plant response rating, Ragweed, Common [4, 17] | Plant response rating (0 to 100), Ragweed, Common ([4]; preemergence)
30: Plant response rating, Ragweed, Common [4, 18]
60: Plant response rating, Rice (rice (Oryza saliva))
